# In publication PMC6796385, “Characterizing potential repelling volatiles for “push-pull” strategy against stem borer: a case study in Chilo auricilius” (BMC Genomics, 2019):
# Target: CSP8 (chemosensory protein 8)
# Assay: direct fluorescence titration of purified CSP8 with the fluorescent probe, Scatchard plot
# Format: binding, Chilo auricilius
structure (smiles),measurement,value
"c1ccc(Nc2cccc3ccccc23)cc1 [1-NPN, N-phenyl-1-naphthylamine]",Kd,4 ± 0.13 µM
